Target: T1, CXCR4 (Homo sapiens, UniProt P61073)
T1 construct: full-length receptor overexpressed in U87.CD4.CXCR4 glioma cells
Experiment: […]SDF-1 (CXCL12) displacement on U87.CD4.CXCR4 cells
Assay type: cell-based

T1 sequence (P61073 whole entry): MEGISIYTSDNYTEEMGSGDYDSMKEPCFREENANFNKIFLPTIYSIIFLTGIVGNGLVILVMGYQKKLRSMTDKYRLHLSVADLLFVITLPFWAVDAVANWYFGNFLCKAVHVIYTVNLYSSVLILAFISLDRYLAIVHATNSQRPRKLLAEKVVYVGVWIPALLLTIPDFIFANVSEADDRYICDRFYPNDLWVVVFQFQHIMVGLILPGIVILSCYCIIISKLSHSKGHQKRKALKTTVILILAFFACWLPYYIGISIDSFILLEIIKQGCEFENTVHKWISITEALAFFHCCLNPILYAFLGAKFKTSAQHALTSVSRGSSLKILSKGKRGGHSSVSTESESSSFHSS

Row | IC50 [nM] | SMILES
1 | 89.8 ± 3.5 | c1ccc(CNCc2ccc(CN3CCCNCCNCCCNCC3)cc2)nc1 [AMD3465]
2 | 111 ± 4 | Fc1ccc(CNCCNCc2ccc(CN3CCCNCCNCCCNCC3)cc2)cc1 [compound 5, N^1-(4-((1,4,8,11-Tetraazacyclotetradecan-1-yl)methyl)benzyl)-N^2-(4-fluorobenzyl)ethane-1,2-diamine]
